From ChEMBL document CHEMBL3046123, “Molecular bases for resistance to acetyl-coenzyme A carboxylase inhibitor in Japanese foxtail (Alopecurus japonicus)” (Pest Manag Sci, 2012)

Assays:
Alopecurus japonicus [1] = experiment: Herbicidal activity against haloxyfop-R-methyl-sensitive Alopecurus japonicus (Japanese foxtail) biotype Js-S assessed as inhibition of shoot length after 14 days; format: functional
Alopecurus japonicus [2] = experiment: Herbicidal activity against haloxyfop-R-methyl-resistant Alopecurus japonicus (Japanese foxtail) biotype Js-R assessed as inhibition of shoot length after 14 days; format: functional
Alopecurus japonicus [3] = experiment: Resistance index, ratio of ED50 for haloxyfop-R-methyl-resistant Alopecurus japonicus (Japanese foxtail) biotype Js-R to ED50 for haloxyfop-R-methyl-sensitive Alopecurus japonicus (Japanese foxtail) biotype Js-S; format: functional
ACCase [4] = target: T1, ACCase (Alopecurus japonicus, UniProt H9BT73); experiment: Inhibition of Acetyl-CoA carboxylase (ACCase) in haloxyfop-R-methyl-sensitive Alopecurus japonicus (Japanese foxtail) biotype Js-S shoot extracts; details: read-out: I50
[5] = target: ACCase (Alopecurus japonicus) (UniProt H9BT73); experiment: Resistance index, ratio of I50 for ACCase in haloxyfop-R-methyl-resistant Alopecurus japonicus (Japanese foxtail) biotype Js-R to I50 for Acetyl-CoA carboxylase (ACCase) in haloxyfop-R-methyl-sensitive Alopecurus japonicus (Japanese foxtail) biotype Js-S
ACCase [6] = target: T1, ACCase; experiment: Inhibition of Acetyl-CoA carboxylase (ACCase) in haloxyfop-R-methyl-resistant Alopecurus japonicus (Japanese foxtail) biotype Js-R shoot extracts; details: read-out: I50

**Q.** Which ED50 (Alopecurus japonicus [1]) does the source give for `CCOC(=O)[C@@H](C)Oc1ccc(Oc2cnc3cc(Cl)ccc3n2)cc1` [QUIZALOFOP-P-ETHYL] here?
**A.** Its ED50 is 0.426 mg/m2.

**Q.** And the ED50 (Alopecurus japonicus [2])?
**A.** Its ED50 is 15.283 mg/m2.

**Q.** What about the Ratio (Alopecurus japonicus [3]) of the same compound?
**A.** The Ratio was 35.87.

**Q.** How did the ED50 (Alopecurus japonicus [1]) turn out when `CCOC(=O)[C@@H](C)Oc1ccc(Oc2nc3ccc(Cl)cc3o2)cc1` [FENOXAPROP-P-ETHYL] was run?
**A.** The ED50 was 0.114 mg/m2.

**Q.** What about the ED50 (Alopecurus japonicus [2]) of the same compound?
**A.** Its ED50 is 1.289 mg/m2.

**Q.** What about the Ratio (Alopecurus japonicus [3]) of the same compound?
**A.** The Ratio was 11.35.

**Q.** How did the IC50 (ACCase [4]) turn out when `CC(Oc1ccc(Oc2ncc(C(F)(F)F)cc2Cl)cc1)C(=O)O` (stereo not given) [HALOXYFOP] was run?
**A.** The IC50 was 2.6 nM.

**Q.** What about the Ratio [5] of the same compound?
**A.** The Ratio was 10.8.

**Q.** What about the IC50 (ACCase [6]) of the same compound?
**A.** Its IC50 is 28 nM.

**Q.** What does the source list for `C#CCOC(=O)[C@@H](C)Oc1ccc(Oc2ncc(Cl)cc2F)cc1` [CLODINAFOP PROPARGYL]?
**A.** ED50 (Alopecurus japonicus [1]): 0.721 mg/m2; ED50 (Alopecurus japonicus [2]): 4.209 mg/m2; Ratio (Alopecurus japonicus [3]): 5.84

**Q.** For `CCCCOC(=O)[C@H](C)Oc1ccc(Oc2ccc(C#N)cc2F)cc1` [CYHALOFOP-BUTYL], which ED50 (Alopecurus japonicus [1]) is on record?
**A.** Its ED50 is 0.144 mg/m2.

**Q.** What about the ED50 (Alopecurus japonicus [2]) of the same compound?
**A.** The ED50 was 0.698 mg/m2.

**Q.** And the Ratio (Alopecurus japonicus [3])?
**A.** The Ratio was 4.85.
